Measured values taken from US20080233127A1, “IMIDAZOLOPYRIMIDINE ANALOGS AND THEIR USE AS PI3 KINASE AND MTOR INHIBITORS” (Wyeth, priority 2007, published 2008).

Experiments:
PI3 Kinase = test: PI3K fluorescence polarization assay; type: biochemical; details: 25 μM ATP, diC8-PI(4,5)P2 substrate, 1 hour at 25° C.; read-out: PI3 Kinase Median IC50
human TOR = molecular target: T1, human TOR (Homo sapiens, UniProt P42345); test: mTOR enzyme assay (DELFIA format, purified FLAG-TOR, His6-S6K substrate); type: biochemical; details: 100 μM ATP, 1.25 μM His6-S6K, 2 hours at room temperature; read-out: TOR Kinase Median IC50
T1 construct: FLAG

SMILES	IC50 (PI3 Kinase)	IC50 (human TOR)	melting point
Nc1ncc(-c2nc(N3CCOCC3)c3ncn(C4CCN(Cc5ccccc5)CC4)c3n2)cn1 [Compound 31, 5-[9-(1-benzylpiperidin-4-yl)-6-morpholin-4-yl-9H-purin-2-yl]pyrimidin-2-amine]	43 nM	220 nM	238 to 240 °C
Nc1ccc(-c2nc(N3CCOCC3)c3ncn(C4CCN(Cc5ccccc5)CC4)c3n2)cn1 [Compound 32, 5-[9-(1-benzylpiperidin-4-yl)-6-morpholin-4-yl-9H-purin-2-yl]pyridin-2-amine]	160 nM	120 nM	198 to 200 °C
OCc1cccc(-c2nc(N3CCOCC3)c3ncn(C4CCN(Cc5ccc(F)nc5)CC4)c3n2)c1 [Compound 61, [3-(9-{1-[(6-fluoropyridin-3-yl)methyl]piperidin-4-yl}-6-morpholin-4-yl-9H-purin-2-yl)phenyl]methanol]	47 nM	710 nM	

Continued, values first:

IC50 (PI3 Kinase)	IC50 (human TOR)	melting point	SMILES
94 nM	2000 nM		OCc1cccc(-c2nc(N3CCOCC3)c3ncn(C4CCN(Cc5cnc6n5CCOC6)CC4)c3n2)c1 [Compound 74, (3-{9-[1-(5,6-dihydro-8H-imidazo[2,1-c][1,4]oxazin-3-ylmethyl)piperidin-4-yl]-6-morpholin-4-yl-9H-purin-2-yl}phenyl)methanol]
177 nM	> 4000 nM		OCc1cccc(-c2nc(N3CCOCC3)c3ncn(C4CCN(Cc5cncc(F)c5)CC4)c3n2)c1 [Compound 66, [3-(9-{1-[(5-fluoropyridin-3-yl)methyl]piperidin-4-yl}-6-morpholin-4-yl-9H-purin-2-yl)phenyl]methanol]
